Patent publication US11512078B2, “Addition salt of S1P1 receptor agonist and crystal form thereof, and pharmaceutical composition” (SUZHOU CONNECT BIOPHARMACEUTICALS, LTD., priority 2018, dated 2022)
Like-named read-outs stand apart in the source and are kept apart here.

How the values were obtained:
[1] = Solubility of free state and salt forms in water by HPLC; type: physicochemical; conditions: stirred 2 h at 25° C., filtered
Protocol: HPLC solubility data were collected with Agilent 1260 high performance liquid chromatograph. The chromatographic column used was Poroshell 120 EC-C18 ([…]), the detection wavelength was 254 nm, column temperature for detection was 40° C., flow rate was 1.5 mL/min, and the sample volume was 5 μL. A sample was dissolved in mobile phase B to prepare a sample solution of a concentration about 0.45 mg/mL, and HPLC detection was performed according to the following gradient elution mode to obtain concentration in the sample.
Then samples were taken and filtered, and the concentrations were detected by HPLC. The solubility of the active ingredient in each of the samples in water was calculated.

[2] = Crystal form stability of free state in solvents (Comparative Example 1 of CN105315266A); type: physicochemical
Excerpt: Identification, preparation, a composition and use of the compound represented by formula A are disclosed in patent document CN103450171A (which is incorporated herein by reference in its entirety). Specifically, a method for preparing the compound is disclosed in Example 2. 12 crystal forms of the compound represented by formula A are disclosed in patent document CN105315266A (which is incorporated herein by reference in its entirety).

[3] = start: crystal forms I-XII and amorphous form, cited from earlier work
Hygroscopicity by DVS = type: physicochemical; conditions: relative humidity 20%-80%; for Moisture uptake: DVS; for Appearance: after DVS
Protocol: Dynamic Vapor Sorption (DVS) data and isothermal sorption analysis data were collected with TA Instruments Q5000 TGA. The detection method used was as follows: 1-10 mg of a sample was placed in a platinum crucible, and weight change with the change of relative humidity from 20% to 80% was detected.

[4] = Crystal form storage stability, 30 days under conventional, high-temperature and accelerated conditions; type: physicochemical; conditions: 1 month under conventional, high-temperature (60° C.) and accelerated conditions (40° C.-75% relative humidity)
Protocol: The crystal form of the sulfate of the compound represented by formula A and the crystal form of the maleate of the compound represented by formula A according to the present application were taken to perform a stability experiment. Specific operation was as follows: 60 mg of the samples of the crystal form of the sulfate of the compound represented by formula A and the crystal form of the maleate of the compound represented by formula A according to the present application were taken and placed for 30 days respectively under conventional condition (sealed and placed in a dark place at 25° C.), high-temperature condition (sealed and placed in a dark place at 60° C.) and accelerated condition (opened and placed in a dark place at 40° C.-75% relative humidity) to study crystal form stability.

[5] = Crystal form stability of salt forms as suspensions in solvents; conditions: for Crystal form after stirring suspension: room temperature
[6] = Solubility of sodium salt in water (water gradually added until clear); type: physicochemical; conditions: thermodynamic from solid; in water at 25° C.; deionized water gradually added, ultrasonication to clear solution
Protocol: The solubility of the sample in water was calculated.

[7] = Thermal stability, decomposition temperature by TGA; type: physicochemical
Protocol: Thermogravimetric Analysis (TGA) data were collected with TA Instruments Q500 TGA. The detection method used was as follows: 5-15 mg of a samples was placed in a platinum crucible, and a segmented high-resolution detection method was adopted in which the temperature of the sample was increased from room temperature to 300° C. at a heating rate of 10° C./min under the protection of 40 mL/min dry N2.

[8] = Storage stability of sodium salt crystal form, 4 months; type: physicochemical; conditions: room temperature, relative humidity 10%-90%

Compound	Solubility [1] [µg/mL]	Moisture uptake (Hygroscopicity by DVS) [%]	Appearance (Hygroscopicity by DVS)	Appearance, XRPD pattern and melting point after storage [4]	Crystal form after stirring suspension ([5]; Acetone, 3 days)	Crystal form after stirring suspension ([5]; Ethanol, 3 days)	Crystal form after stirring suspension ([5]; Isopropanol, 3 days)	Crystal form after stirring suspension ([5]; Water, 3 days)	Crystal form after stirring suspension ([5]; Water:acetone = 1:1, 3 days)	Crystal form after stirring suspension ([5]; Water:acetone = 1:5, 3 days)	Crystal form after stirring suspension ([5]; Water:acetone = 1:10, 3 days)	Crystal form after stirring suspension ([5]; Water:acetone = 1:100, 3 days)	Crystal form after stirring suspension ([5]; Water:ethanol = 1:1, 3 days)	Crystal form after stirring suspension ([5]; Water:ethanol = 1:5, 3 days)	Crystal form after stirring suspension ([5]; Water:ethanol = 1:10, 3 days)	Crystal form after stirring suspension ([5]; Water:ethanol = 1:100, 3 days)	Stability of crystal form in aqueous systems [5]	other results
CC(C)Cc1ccc(-c2nc(-c3ccc(CN4CC(C(=O)O)C4)c(F)c3)no2)cc1 [1-{2-fluoro-4-[5-(4-isobutylphenyl)-1,2,4-oxadiazole-3-yl]benzyl}-3-azetidinecarboxylic acid]	–	–	–	–	–	–	–	–	–	–	–	–	–	–	–	–	–	Solubility ([1]; listed as compound represented by formula A): 1.1 µg/mL; Most stable crystal form ([2]; in an organic solvent): crystal form IV; Most stable crystal form ([2]; in water): crystal form I; Final crystal form ([3]; Acetone): Crystal form IV; Final crystal form ([3]; Ethanol): Crystal form IV; Final crystal form ([3]; Isopropanol): Crystal form IV; Final crystal form ([3]; Water:acetone = 1:1): Crystal form I; Final crystal form ([3]; Water:acetone = 1:5): Crystal form I; Final crystal form ([3]; Water:acetone = 1:10): Crystal form I; Final crystal form ([3]; Water:acetone = 1:100): Crystal form I; Final crystal form ([3]; Water:ethanol = 1:1): Crystal form I; Final crystal form ([3]; Water:ethanol = 1:5): Crystal form I; Final crystal form ([3]; Water:ethanol = 1:10): Crystal form I; Final crystal form ([3]; Water:ethanol = 1:100): Crystal form I; Final crystal form ([3]; Water): Crystal form I
CC(C)Cc1ccc(-c2nc(-c3ccc(CN4CC(C(=O)O)C4)c(F)c3)no2)cc1.O=C(O)/C=C\C(=O)O [maleate of 1-{2-fluoro-4-[5-(4-isobutylphenyl)-1,2,4-oxadiazole-3-yl]benzyl}-3-azetidinecarboxylic acid]	16.1	0.4	Powder	unchanged	No change	No change	No change	No change	No change	No change	No change	No change	No change	No change	No change	No change	stable	solubility at 2 h ([1]; deionized water, 25 °C, water, thermodynamic from solid): 16 µg/mL
CC(C)Cc1ccc(-c2nc(-c3ccc(CN4CC(C(=O)[O-])C4)c(F)c3)no2)cc1.[Na+] [sodium salt of 1-{2-fluoro-4-[5-(4-isobutylphenyl)-1,2,4-oxadiazole-3-yl]benzyl}-3-azetidinecarboxylic acid]	–	–	–	–	No change	No change	No change	No change	No change	No change	No change	No change	No change	No change	No change	No change	stable	Solubility [6]: 10000 µg/mL; Decomposition temperature [7]: 275 °C; Appearance, XRPD pattern and melting point after storage [8]: unchanged
CC(C)Cc1ccc(-c2nc(-c3ccc(CN4CC(C(=O)O)C4)c(F)c3)no2)cc1 [sulfate of 1-{2-fluoro-4-[5-(4-isobutylphenyl)-1,2,4-oxadiazole-3-yl]benzyl}-3-azetidinecarboxylic acid]	19.2	0.7	Powder	unchanged	No change	No change	No change	No change	No change	No change	No change	No change	No change	No change	No change	No change	stable	Solubility ([1]; listed as sulfate of the compound represented by formula A): 19 µg/mL
